*1 amine or outer side, *2 acyl side, *3 side chain or, on linkers, in order; H or OH if unused. Where a SMILES comes first, the peptide text is derived from it. Side-chain parts run from the residue outwards. [ ]: non-standard residue; d: D form. The star is where a group is joined. C20 diacid = O=C(O)CCCCCCCCCCCCCCCCCCC(=O)*; αMePhe(2-F) = C[C@](N)(Cc1ccccc1F)C(=O)O; γGlu = O=C(O)[C@H](CCC(=O)[*:2])N[*:1]; αMeF = C[C@](N)(Cc1ccccc1)C(=O)O; 4Pal = N[C@@H](Cc1ccncc1)C(=O)O; αMeL = CC(C)C[C@](C)(N)C(=O)O; AEEA = NCCOCCOCC(=O)O; Aib = CC(C)(N)C(=O)O
Assays:
human GLP-1R = target: T1, human GLP-1R (Homo sapiens, UniProt P43220); test: [125I]-GLP-1 binding, SPA with WGA beads, 0.1% bacitracin; settings: geometric mean, read-out: hGLP1R Ki
T1 construct: expressed in transfected cells; crude membranes
T1 sequence (P43220 24-463): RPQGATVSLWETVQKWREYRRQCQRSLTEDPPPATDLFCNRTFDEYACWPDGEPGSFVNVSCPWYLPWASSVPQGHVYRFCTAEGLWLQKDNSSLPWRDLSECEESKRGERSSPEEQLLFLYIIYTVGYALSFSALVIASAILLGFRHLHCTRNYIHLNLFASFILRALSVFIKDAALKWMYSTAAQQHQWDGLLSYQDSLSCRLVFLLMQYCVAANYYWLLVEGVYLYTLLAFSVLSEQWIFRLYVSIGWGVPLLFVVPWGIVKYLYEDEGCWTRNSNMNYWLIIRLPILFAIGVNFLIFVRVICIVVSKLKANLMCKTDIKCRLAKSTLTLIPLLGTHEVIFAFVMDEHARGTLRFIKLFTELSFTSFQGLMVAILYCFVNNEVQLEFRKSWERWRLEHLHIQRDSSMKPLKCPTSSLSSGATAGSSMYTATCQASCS
Outline: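 Binding buffer was 25 mM HEPES pH 7.4 with 2.5 mM CaCl2, 1 mM MgCl2, 0.1% (w/v) bacitracin, 0.003% Tween-20 and EDTA-free protease inhibitors. Four-parameter regression gave IC50, converted to Ki (geometric mean, SEM, n independent days).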

human GcgR = target: T2, human GcgR (Homo sapiens, UniProt P47871); test: [125I]-Glucagon binding, SPA with WGA beads, 0.1% bacitracin; settings: geometric mean, read-out: hGcgR Ki
T2 construct: expressed in transfected cells; crude membranes
T2 sequence (P47871 26-477): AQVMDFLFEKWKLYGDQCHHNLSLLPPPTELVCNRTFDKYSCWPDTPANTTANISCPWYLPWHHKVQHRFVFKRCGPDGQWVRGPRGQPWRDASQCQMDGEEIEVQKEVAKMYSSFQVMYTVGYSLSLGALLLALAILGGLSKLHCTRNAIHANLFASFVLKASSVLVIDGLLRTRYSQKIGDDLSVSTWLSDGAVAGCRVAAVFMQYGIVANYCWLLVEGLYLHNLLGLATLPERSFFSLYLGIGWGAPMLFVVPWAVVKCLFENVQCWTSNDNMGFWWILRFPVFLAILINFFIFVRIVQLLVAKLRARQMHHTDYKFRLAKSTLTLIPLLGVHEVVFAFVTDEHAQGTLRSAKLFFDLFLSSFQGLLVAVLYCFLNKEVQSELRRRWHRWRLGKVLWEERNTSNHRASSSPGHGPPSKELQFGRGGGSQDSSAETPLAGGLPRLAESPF
Outline: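 SPA competition binding with WGA beads on crude membranes from HEK293 cells stably expressing hGcgR. Buffer: 25 mM HEPES pH 7.4, 2.5 mM CaCl2, 1 mM MgCl2, 0.1% bacitracin, 0.003% Tween-20; 10-point 3-fold dilutions, NSB with 1 μM Gcg.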

| Structure (SMILES) | Ki (human GLP-1R) [nM] | Ki (human GcgR) [nM] |
| --- | --- | --- |
| CC[C@H](C)[C@H](NC(=O)[C@H](Cc1ccccc1)NC(=O)[C@@H](NC(=O)CNC(=O)[C@H](CCC(=O)O)NC(=O)C(C)(C)NC(=O)[C@@H](N)Cc1ccc(O)cc1)[C@@H](C)O)C(=O)N[C@@H](CO)C(=O)N[C@@H](CC(=O)O)C(=O)N[C@@H](Cc1ccc(O)cc1)C(=O)N[C@@H](CO)C(=O)N[C@H](C(=O)N[C@@](C)(CC(C)C)C(=O)N[C@@H](CC(C)C)C(=O)N[C@@H](CC(=O)O)C(=O)N[C@@H](CCCCN)C(=O)N[C@@H](CCCCNC(=O)COCCOCCNC(=O)COCCOCCNC(=O)CC[C@H](NC(=O)CCCCCCCCCCCCCCCCCCC(=O)O)C(=O)O)C(=O)N[C@@H](Cc1c[nH]cn1)C(=O)N[C@@H](CCC(N)=O)C(=O)NC(C)(C)C(=O)N[C@@H](CC(=O)O)C(=O)N[C@@H](Cc1ccccc1)C(=O)N[C@H](C(=O)N[C@@H](CCC(=O)O)C(=O)N[C@@H](Cc1ccncc1)C(=O)N[C@@H](CC(C)C)C(=O)N[C@@H](CC(C)C)C(=O)N[C@@H](C)C(=O)N[C@H](C(=O)NCC(=O)N1CCC[C@H]1C(=O)N[C@@H](CO)C(=O)N[C@@H](CO)C(=O)NCC(=O)N[C@@H](C)C(=O)N1CCC[C@H]1C(=O)N1CCC[C@H]1C(=O)N1CCC[C@H]1C(=O)N[C@@H](CO)C(N)=O)[C@@H](C)O)C(C)C)[C@@H](C)CC [Example 70] (H-Y[Aib]EGTFISDYSI[αMeL]LDKK([AEEA-AEEA-γGlu-C20 diacid])HQ[Aib]DFVE[4Pal]LLATGPSSGAPPPS-NH2) | 570 | 857 |
| CC[C@H](C)[C@H](NC(=O)[C@H](CO)NC(=O)[C@H](Cc1ccc(O)cc1)NC(=O)[C@H](CC(=O)O)NC(=O)[C@H](CO)NC(=O)[C@@H](NC(=O)[C@](C)(Cc1ccccc1)NC(=O)[C@@H](NC(=O)CNC(=O)[C@H](CCC(=O)O)NC(=O)C(C)(C)NC(=O)[C@@H](N)Cc1ccc(O)cc1)[C@@H](C)O)[C@@H](C)CC)C(=O)N[C@@H](C)C(=O)N[C@@H](CC(C)C)C(=O)N[C@@H](CC(=O)O)C(=O)N[C@@H](CCCCN)C(=O)N[C@@H](CCCCNC(=O)COCCOCCNC(=O)COCCOCCNC(=O)CC[C@H](NC(=O)CCCCCCCCCCCCCCCCCCC(=O)O)C(=O)O)C(=O)N[C@@H](Cc1c[nH]cn1)C(=O)N[C@@H](CCC(N)=O)C(=O)NC(C)(C)C(=O)N[C@@H](CC(=O)O)C(=O)N[C@@H](Cc1ccccc1)C(=O)N[C@H](C(=O)N[C@@H](CCC(=O)O)C(=O)N[C@@H](Cc1ccncc1)C(=O)N[C@@H](CC(C)C)C(=O)N[C@@H](CC(C)C)C(=O)N[C@@H](CCC(=O)O)C(=O)N[C@@H](CCC(N)=O)C(=O)NCC(=O)N1CCC[C@H]1C(=O)N[C@@H](CO)C(=O)N[C@@H](CO)C(=O)NCC(=O)N[C@@H](C)C(=O)N1CCC[C@H]1C(=O)N1CCC[C@H]1C(=O)N1CCC[C@H]1C(=O)N[C@@H](CO)C(N)=O)C(C)C [Example 42] (H-Y[Aib]EGT[αMeF]ISDYSIALDKK([AEEA-AEEA-γGlu-C20 diacid])HQ[Aib]DFVE[4Pal]LLEQGPSSGAPPPS-NH2) | 563 | 99.1 |
| CC[C@H](C)[C@H](NC(=O)[C@H](Cc1ccccc1)NC(=O)[C@@H](NC(=O)CNC(=O)[C@H](CCC(=O)O)NC(=O)C(C)(C)NC(=O)[C@@H](N)Cc1ccc(O)cc1)[C@@H](C)O)C(=O)N[C@@H](CO)C(=O)N[C@@H](CC(=O)O)C(=O)N[C@@H](Cc1ccc(O)cc1)C(=O)N[C@@H](CO)C(=O)N[C@H](C(=O)N[C@@](C)(CC(C)C)C(=O)N[C@@H](CC(C)C)C(=O)N[C@@H](CC(=O)O)C(=O)N[C@@H](CCCCN)C(=O)N[C@@H](CCCCNC(=O)COCCOCCNC(=O)COCCOCCNC(=O)CC[C@H](NC(=O)CCCCCCCCCCCCCCCCCCC(=O)O)C(=O)O)C(=O)N[C@@H](Cc1c[nH]cn1)C(=O)N[C@@H](CCC(N)=O)C(=O)NC(C)(C)C(=O)N[C@@H](CC(=O)O)C(=O)N[C@@H](Cc1ccccc1)C(=O)N[C@H](C(=O)N[C@@H](CCC(=O)O)C(=O)N[C@@H](Cc1ccncc1)C(=O)N[C@@H](CC(C)C)C(=O)N[C@@H](CC(C)C)C(=O)N[C@@H](CCC(=O)O)C(=O)NCC(=O)NCC(=O)N1CCC[C@H]1C(=O)N[C@@H](CO)C(=O)N[C@@H](CO)C(=O)NCC(=O)N[C@@H](C)C(=O)N1CCC[C@H]1C(=O)N1CCC[C@H]1C(=O)N1CCC[C@H]1C(=O)N[C@@H](CO)C(N)=O)C(C)C)[C@@H](C)CC [Example 47] (H-Y[Aib]EGTFISDYSI[αMeL]LDKK([AEEA-AEEA-γGlu-C20 diacid])HQ[Aib]DFVE[4Pal]LLEGGPSSGAPPPS-NH2) | 320 | 175 |
| CC[C@H](C)[C@H](NC(=O)[C@H](Cc1ccccc1)NC(=O)[C@@H](NC(=O)CNC(=O)[C@H](CCC(=O)O)NC(=O)C(C)(C)NC(=O)[C@@H](N)Cc1ccc(O)cc1)[C@@H](C)O)C(=O)N[C@@H](CO)C(=O)N[C@@H](CC(=O)O)C(=O)N[C@@H](Cc1ccc(O)cc1)C(=O)N[C@@H](CO)C(=O)N[C@H](C(=O)N[C@@](C)(CC(C)C)C(=O)N[C@@H](CC(C)C)C(=O)N[C@@H](CC(=O)O)C(=O)N[C@@H](CCCCN)C(=O)N[C@@H](CCCCNC(=O)COCCOCCNC(=O)COCCOCCNC(=O)CC[C@H](NC(=O)CCCCCCCCCCCCCCCCCCC(=O)O)C(=O)O)C(=O)N[C@@H](Cc1c[nH]cn1)C(=O)N[C@@H](CCC(N)=O)C(=O)NC(C)(C)C(=O)N[C@@H](CC(=O)O)C(=O)N[C@@](C)(Cc1ccccc1)C(=O)N[C@H](C(=O)N[C@@H](CCC(=O)O)C(=O)N[C@@H](Cc1ccncc1)C(=O)N[C@@H](CC(C)C)C(=O)N[C@@H](CC(C)C)C(=O)N[C@@H](C)C(=O)NCC(=O)NCC(=O)N1CCC[C@H]1C(=O)N[C@@H](CO)C(=O)N[C@@H](CO)C(=O)NCC(=O)N[C@@H](C)C(=O)N1CCC[C@H]1C(=O)N1CCC[C@H]1C(=O)N1CCC[C@H]1C(=O)N[C@@H](CO)C(N)=O)C(C)C)[C@@H](C)CC [Example 56] | 530 | 193 |
| CC[C@H](C)[C@H](NC(=O)[C@H](CO)NC(=O)[C@H](Cc1ccc(O)cc1)NC(=O)[C@H](CC(=O)O)NC(=O)[C@H](CO)NC(=O)[C@@H](NC(=O)[C@](C)(Cc1ccccc1F)NC(=O)[C@@H](NC(=O)CNC(=O)[C@H](CCC(=O)O)NC(=O)C(C)(C)NC(=O)[C@@H](N)Cc1ccc(O)cc1)[C@@H](C)O)[C@@H](C)CC)C(=O)N[C@@](C)(CC(C)C)C(=O)N[C@@H](CC(C)C)C(=O)N[C@@H](CC(=O)O)C(=O)N[C@@H](CCCCN)C(=O)N[C@@H](CCCCNC(=O)COCCOCCNC(=O)COCCOCCNC(=O)CC[C@H](NC(=O)CCCCCCCCCCCCCCCCCCC(=O)O)C(=O)O)C(=O)N[C@@H](Cc1c[nH]cn1)C(=O)N[C@@H](CCC(N)=O)C(=O)NC(C)(C)C(=O)N[C@@H](CC(=O)O)C(=O)N[C@@H](Cc1ccccc1)C(=O)N[C@H](C(=O)N[C@@H](CCC(=O)O)C(=O)N[C@@H](Cc1ccncc1)C(=O)N[C@@H](CC(C)C)C(=O)N[C@@H](CC(C)C)C(=O)N[C@@H](C)C(=O)NCC(=O)NCC(=O)N1CCC[C@H]1C(=O)N[C@@H](CO)C(=O)N[C@@H](CO)C(=O)NCC(=O)N[C@@H](C)C(=O)N1CCC[C@H]1C(=O)N1CCC[C@H]1C(=O)N1CCC[C@H]1C(=O)N[C@@H](CO)C(N)=O)C(C)C [Example 51] (H-Y[Aib]EGT[αMePhe(2-F)]ISDYSI[αMeL]LDKK([AEEA-AEEA-γGlu-C20 diacid])HQ[Aib]DFVE[4Pal]LLAGGPSSGAPPPS-NH2) | 54.1 | 26.7 |

Source: patent publication US12723063B2, “GIPR-agonist compounds” (Eli Lilly and Company, priority 2019, dated 2026)
